Measurements: ChEMBL document CHEMBL3991601, “The target landscape of clinical kinase drugs” (Science, 2017)
Activity calls are given as the source filed them. Rule as the data show it, for most assays here: actives have a measured Kd and inactives only a lower limit.

What was measured:
[1] = biological target: T1, Ferrochelatase, mitochondrial (Homo sapiens, UniProt P22830)
T1 sequence (P22830 whole entry): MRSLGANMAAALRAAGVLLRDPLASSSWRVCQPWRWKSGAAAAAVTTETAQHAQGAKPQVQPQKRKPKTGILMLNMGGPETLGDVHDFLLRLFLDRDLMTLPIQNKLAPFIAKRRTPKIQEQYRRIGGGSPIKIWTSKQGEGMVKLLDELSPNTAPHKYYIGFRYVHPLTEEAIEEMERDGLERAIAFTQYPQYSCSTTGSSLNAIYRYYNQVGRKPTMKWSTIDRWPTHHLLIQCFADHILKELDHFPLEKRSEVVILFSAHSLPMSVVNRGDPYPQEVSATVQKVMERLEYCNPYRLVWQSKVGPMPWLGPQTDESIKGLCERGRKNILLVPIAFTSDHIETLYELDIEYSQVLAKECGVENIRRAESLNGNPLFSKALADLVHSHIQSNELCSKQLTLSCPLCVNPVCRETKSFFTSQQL

[2] = biological target: Protein-tyrosine kinase 6 (Homo sapiens, UniProt Q13882)
[3] = biological target: Platelet-derived growth factor receptor beta (Homo sapiens, UniProt P09619)
[4] = biological target: Tyrosine-protein kinase Yes (Homo sapiens, UniProt P07947)
Ephrin type-B receptor 6 = biological target: T2, Ephrin type-B receptor 6 (Homo sapiens, UniProt O15197)
T2 sequence (O15197 whole entry): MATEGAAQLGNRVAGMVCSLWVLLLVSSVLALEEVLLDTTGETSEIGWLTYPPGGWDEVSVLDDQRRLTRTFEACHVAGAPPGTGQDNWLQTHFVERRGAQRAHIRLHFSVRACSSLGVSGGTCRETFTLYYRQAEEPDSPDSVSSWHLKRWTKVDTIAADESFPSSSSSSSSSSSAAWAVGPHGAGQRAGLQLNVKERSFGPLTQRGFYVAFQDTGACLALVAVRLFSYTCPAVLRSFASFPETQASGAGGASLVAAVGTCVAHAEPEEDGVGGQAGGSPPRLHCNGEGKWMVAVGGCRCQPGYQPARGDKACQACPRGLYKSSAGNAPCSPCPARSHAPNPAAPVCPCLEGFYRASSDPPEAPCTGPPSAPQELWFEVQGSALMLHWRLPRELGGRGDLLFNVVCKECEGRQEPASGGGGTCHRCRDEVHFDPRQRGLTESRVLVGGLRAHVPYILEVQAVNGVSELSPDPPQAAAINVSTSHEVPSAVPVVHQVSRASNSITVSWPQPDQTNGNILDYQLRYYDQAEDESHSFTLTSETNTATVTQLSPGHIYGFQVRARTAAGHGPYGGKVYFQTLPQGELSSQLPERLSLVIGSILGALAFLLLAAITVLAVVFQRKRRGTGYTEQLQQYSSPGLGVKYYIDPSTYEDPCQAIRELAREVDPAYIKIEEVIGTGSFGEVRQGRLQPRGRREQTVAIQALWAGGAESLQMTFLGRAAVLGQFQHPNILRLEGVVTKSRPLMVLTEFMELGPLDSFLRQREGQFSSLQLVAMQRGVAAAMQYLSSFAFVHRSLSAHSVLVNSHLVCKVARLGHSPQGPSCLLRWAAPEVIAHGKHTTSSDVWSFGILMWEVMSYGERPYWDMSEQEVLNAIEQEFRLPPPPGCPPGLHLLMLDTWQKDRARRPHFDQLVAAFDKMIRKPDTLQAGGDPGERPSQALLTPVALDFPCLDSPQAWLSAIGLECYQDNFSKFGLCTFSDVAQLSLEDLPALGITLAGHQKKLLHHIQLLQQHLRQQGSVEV

[5] = biological target: T3, ATP-dependent RNA helicase DDX42 (Homo sapiens, UniProt Q86XP3)
T3 sequence (Q86XP3 whole entry): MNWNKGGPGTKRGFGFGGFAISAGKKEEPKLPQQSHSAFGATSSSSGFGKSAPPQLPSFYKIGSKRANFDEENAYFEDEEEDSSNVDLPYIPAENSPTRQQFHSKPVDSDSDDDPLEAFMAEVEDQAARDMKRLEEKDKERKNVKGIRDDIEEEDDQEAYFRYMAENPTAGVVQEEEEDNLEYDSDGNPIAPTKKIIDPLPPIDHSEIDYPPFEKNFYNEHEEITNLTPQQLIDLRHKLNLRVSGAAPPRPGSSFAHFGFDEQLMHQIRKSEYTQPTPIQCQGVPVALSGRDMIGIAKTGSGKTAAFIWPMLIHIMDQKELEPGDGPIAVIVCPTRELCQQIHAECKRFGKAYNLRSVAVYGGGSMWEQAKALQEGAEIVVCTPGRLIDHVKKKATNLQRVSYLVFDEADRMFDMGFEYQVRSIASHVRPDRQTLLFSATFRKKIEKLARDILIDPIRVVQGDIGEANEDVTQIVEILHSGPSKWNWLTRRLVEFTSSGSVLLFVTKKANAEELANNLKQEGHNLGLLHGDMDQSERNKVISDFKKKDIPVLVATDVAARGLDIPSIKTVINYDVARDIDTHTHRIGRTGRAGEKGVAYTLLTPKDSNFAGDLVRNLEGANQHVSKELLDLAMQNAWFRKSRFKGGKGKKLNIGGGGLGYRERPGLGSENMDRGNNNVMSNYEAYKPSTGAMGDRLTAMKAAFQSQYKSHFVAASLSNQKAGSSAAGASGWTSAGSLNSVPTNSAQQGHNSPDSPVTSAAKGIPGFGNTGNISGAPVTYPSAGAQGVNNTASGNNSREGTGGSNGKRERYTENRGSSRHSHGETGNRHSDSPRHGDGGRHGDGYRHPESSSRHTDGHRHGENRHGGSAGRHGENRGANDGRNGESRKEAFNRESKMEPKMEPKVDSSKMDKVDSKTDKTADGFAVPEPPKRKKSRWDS

[6] = biological target: T4, Calcium/calmodulin-dependent protein kinase type IV (Homo sapiens, UniProt Q16566)
T4 sequence (Q16566 whole entry): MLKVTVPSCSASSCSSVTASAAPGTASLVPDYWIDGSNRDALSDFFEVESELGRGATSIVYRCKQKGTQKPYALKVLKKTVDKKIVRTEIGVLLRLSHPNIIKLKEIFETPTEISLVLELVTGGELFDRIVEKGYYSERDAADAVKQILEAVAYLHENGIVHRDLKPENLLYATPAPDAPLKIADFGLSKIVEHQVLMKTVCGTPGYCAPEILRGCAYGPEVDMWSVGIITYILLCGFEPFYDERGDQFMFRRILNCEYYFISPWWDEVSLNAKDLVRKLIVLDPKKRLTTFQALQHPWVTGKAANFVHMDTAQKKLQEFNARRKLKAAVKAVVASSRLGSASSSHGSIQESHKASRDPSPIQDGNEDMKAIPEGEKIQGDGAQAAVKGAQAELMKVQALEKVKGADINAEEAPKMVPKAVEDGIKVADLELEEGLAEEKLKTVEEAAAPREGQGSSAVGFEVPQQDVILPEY
Also: in the data inactive means no Kd found up to 30 µM.

Platelet-derived growth factor receptor beta, sequence (P09619 whole entry): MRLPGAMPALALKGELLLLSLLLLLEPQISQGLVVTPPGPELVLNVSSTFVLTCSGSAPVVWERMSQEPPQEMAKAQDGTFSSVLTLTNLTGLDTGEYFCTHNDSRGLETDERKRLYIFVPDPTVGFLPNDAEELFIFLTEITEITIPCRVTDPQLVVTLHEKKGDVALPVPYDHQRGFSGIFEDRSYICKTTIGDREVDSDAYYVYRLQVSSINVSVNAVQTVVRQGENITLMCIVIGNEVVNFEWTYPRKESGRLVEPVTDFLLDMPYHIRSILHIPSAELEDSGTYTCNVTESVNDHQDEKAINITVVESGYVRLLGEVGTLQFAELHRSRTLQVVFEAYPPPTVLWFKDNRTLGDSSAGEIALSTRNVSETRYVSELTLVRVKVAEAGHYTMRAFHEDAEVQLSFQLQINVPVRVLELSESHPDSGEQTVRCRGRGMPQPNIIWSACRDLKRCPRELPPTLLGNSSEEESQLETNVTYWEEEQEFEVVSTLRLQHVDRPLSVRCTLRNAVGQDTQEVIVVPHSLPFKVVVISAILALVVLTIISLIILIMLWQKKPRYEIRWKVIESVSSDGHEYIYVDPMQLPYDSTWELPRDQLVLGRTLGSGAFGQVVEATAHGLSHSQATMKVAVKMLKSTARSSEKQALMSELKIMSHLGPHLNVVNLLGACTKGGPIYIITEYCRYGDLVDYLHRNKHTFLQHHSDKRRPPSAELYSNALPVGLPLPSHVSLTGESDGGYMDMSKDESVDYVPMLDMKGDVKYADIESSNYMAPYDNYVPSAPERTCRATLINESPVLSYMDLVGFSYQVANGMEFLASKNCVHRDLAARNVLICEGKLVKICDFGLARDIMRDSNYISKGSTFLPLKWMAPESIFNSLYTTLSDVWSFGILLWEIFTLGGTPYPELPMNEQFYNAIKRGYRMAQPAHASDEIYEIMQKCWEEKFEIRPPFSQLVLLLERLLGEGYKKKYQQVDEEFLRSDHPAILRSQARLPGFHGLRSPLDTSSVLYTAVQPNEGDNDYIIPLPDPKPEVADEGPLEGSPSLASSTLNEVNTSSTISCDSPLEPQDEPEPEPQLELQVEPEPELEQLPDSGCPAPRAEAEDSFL
Protein-tyrosine kinase 6, sequence (Q13882 whole entry): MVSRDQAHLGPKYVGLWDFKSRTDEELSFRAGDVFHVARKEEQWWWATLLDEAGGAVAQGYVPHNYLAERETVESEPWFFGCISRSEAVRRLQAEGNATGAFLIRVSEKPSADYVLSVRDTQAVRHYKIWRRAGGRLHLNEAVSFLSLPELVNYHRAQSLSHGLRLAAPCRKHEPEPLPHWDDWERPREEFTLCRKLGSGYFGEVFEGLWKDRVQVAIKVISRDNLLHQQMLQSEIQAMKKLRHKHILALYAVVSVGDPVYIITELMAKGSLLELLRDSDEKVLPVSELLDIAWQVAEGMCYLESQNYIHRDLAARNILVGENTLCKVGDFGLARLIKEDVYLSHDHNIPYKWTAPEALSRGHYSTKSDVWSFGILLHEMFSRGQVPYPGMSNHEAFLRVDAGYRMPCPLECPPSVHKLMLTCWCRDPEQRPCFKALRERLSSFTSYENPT
Tyrosine-protein kinase Yes, sequence (P07947 whole entry): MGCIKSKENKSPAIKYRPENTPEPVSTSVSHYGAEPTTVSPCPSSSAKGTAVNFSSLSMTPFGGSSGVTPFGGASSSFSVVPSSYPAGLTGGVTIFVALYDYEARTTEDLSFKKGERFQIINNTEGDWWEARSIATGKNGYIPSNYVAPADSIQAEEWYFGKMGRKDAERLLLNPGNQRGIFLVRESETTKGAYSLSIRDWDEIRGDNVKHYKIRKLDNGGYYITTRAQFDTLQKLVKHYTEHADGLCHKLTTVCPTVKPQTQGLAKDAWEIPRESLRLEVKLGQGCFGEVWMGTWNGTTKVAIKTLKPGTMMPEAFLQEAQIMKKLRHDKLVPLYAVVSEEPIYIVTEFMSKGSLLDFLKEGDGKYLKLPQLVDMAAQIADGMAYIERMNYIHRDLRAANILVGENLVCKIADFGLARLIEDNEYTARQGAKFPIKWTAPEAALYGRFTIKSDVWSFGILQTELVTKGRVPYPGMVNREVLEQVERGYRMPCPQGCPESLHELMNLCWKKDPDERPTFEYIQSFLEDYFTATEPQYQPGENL

Kd [1] | Kd [2] | Kd [3] | Kd [4] | Kd (Ephrin type-B receptor 6) | Kd [5] | Kd [6] | Structure (SMILES)
> 30 µM (inactive) | > 30 µM (inactive) | > 30 µM (inactive) | > 30 µM (inactive) | > 30 µM (inactive) | > 30 µM (inactive) | > 30 µM (inactive) | Cc1cc([C@@H](C)Nc2ccccc2C(=O)O)c2nc(N3CCOCC3)cc(=O)n2c1 [AZD-6482]
> 30 µM (inactive) | > 30 µM (inactive) | 1.12 µM (active) | > 30 µM (inactive) | > 30 µM (inactive) | > 30 µM (inactive) | > 30 µM (inactive) | O=C(Nc1ccc(-c2ccnc(Nc3ccc(N4CCOCC4)cc3)n2)cc1)C1CCCN1 (stereo unspecified) [XL-019]
> 30 µM (inactive) | 0.061 µM (active) | > 30 µM (inactive) | 0.781 µM (active) | > 30 µM (inactive) | > 30 µM (inactive) | > 30 µM (inactive) | COc1cc(N2CCC(N3CCN(C)CC3)CC2)ccc1Nc1ncnc(Nc2ccccc2S(=O)(=O)C(C)C)n1 [ASP-3026]
> 30 µM (inactive) | > 30 µM (inactive) | 9.38 µM (active) | – | > 30 µM (inactive) | > 30 µM (inactive) | > 30 µM (inactive) | CCN1CCN(Cc2ccc(-c3cc4c(N[C@H](C)c5ccccc5)ncnc4[nH]3)cc2)CC1 [AEE-788]
> 30 µM (inactive) | > 30 µM (inactive) | 1.61 µM (active) | > 30 µM (inactive) | > 30 µM (inactive) | > 30 µM (inactive) | > 30 µM (inactive) | CN1CCC(CNc2ccc3ncc(-c4cccc(OC(F)(F)F)c4)n3n2)CC1 [SGI-1776]

Second part, the compound before the results:

Structure (SMILES) | Kd [1] | Kd [2] | Kd [3] | Kd [4] | Kd (Ephrin type-B receptor 6) | Kd [5] | Kd [6]
CCS(=O)(=O)N1CC(CC#N)(n2cc(-c3ncnc4[nH]ccc34)cn2)C1 [BARICITINIB] | > 30 µM (inactive) | > 30 µM (inactive) | > 30 µM (inactive) | > 30 µM (inactive) | > 30 µM (inactive) | > 30 µM (inactive) | > 30 µM (inactive)
CN1N=C(N)c2cn([C@@H]3O[C@H](COP(=O)(O)O)[C@@H](O)[C@H]3O)c3ncnc1c23 [TRICIRIBINE PHOSPHATE] | > 30 µM (inactive) | > 30 µM (inactive) | > 30 µM (inactive) | > 30 µM (inactive) | – | > 30 µM (inactive) | > 30 µM (inactive)
CNS(=O)(=O)Nc1nccc(Cc2c(C)c3ccc(Oc4ncccn4)cc3oc2=O)c1F [AVUTOMETINIB] | > 30 µM (inactive) | > 30 µM (inactive) | > 30 µM (inactive) | > 30 µM (inactive) | > 30 µM (inactive) | > 30 µM (inactive) | > 30 µM (inactive)
CCCS(=O)(=O)Nc1ccc(F)c(C(=O)c2c[nH]c3ncc(-c4ccc(Cl)cc4)cc23)c1F [VEMURAFENIB] | 1.42 µM (active) | 1.41 µM (active) | > 30 µM (inactive) | > 30 µM (inactive) | > 30 µM (inactive) | > 30 µM (inactive) | > 30 µM (inactive)
COc1cc2nccc(Oc3ccc(NC(=O)NC4CC4)c(Cl)c3)c2cc1C(N)=O [LENVATINIB] | 2.81 µM (active) | 0.173 µM | 0.316 µM (active) | > 30 µM (inactive) | > 30 µM (inactive) | > 30 µM (inactive) | > 30 µM (inactive)
Cc1cc2c(F)c(Oc3ncnn4cc(OC[C@@H](C)OC(=O)[C@H](C)N)c(C)c34)ccc2[nH]1 [BRIVANIB ALANINATE] | > 30 µM (inactive) | > 30 µM (inactive) | 1.89 µM (active) | > 30 µM (inactive) | > 30 µM (inactive) | > 30 µM (inactive) | > 30 µM (inactive)
Cc1c(F)cc(C(=O)NC2CC2)cc1-c1ccc(C(=O)NCC(C)(C)C)cn1 [LOSMAPIMOD] | > 30 µM (inactive) | > 30 µM (inactive) | > 30 µM (inactive) | > 30 µM (inactive) | > 30 µM (inactive) | > 30 µM (inactive) | > 30 µM (inactive)
CCn1c(=O)c(-c2cc[nH]n2)cc2c(C)nc(N)nc21 [VOXTALISIB] | > 30 µM (inactive) | > 30 µM (inactive) | > 30 µM (inactive) | > 30 µM (inactive) | > 30 µM (inactive) | > 30 µM (inactive) | > 30 µM (inactive)
CC(=O)Nc1cccc(-n2c(=O)n(C3CC3)c(=O)c3c(Nc4ccc(I)cc4F)n(C)c(=O)c(C)c32)c1 [TRAMETINIB] | > 30 µM (inactive) | > 30 µM (inactive) | > 30 µM (inactive) | > 30 µM (inactive) | > 30 µM (inactive) | > 30 µM (inactive) | > 30 µM (inactive)
CN1CC[C@@H](c2c(O)cc(O)c3c(=O)cc(-c4ccccc4Cl)oc23)[C@@H]1CO | > 30 µM (inactive) | > 30 µM (inactive) | > 30 µM (inactive) | > 30 µM (inactive) | > 30 µM (inactive) | 0.002 µM | > 30 µM (inactive)
C[C@@H](c1ccc2nccn2c1)n1nnc2ncc(-c3cnn(C)c3)nc21 [SAVOLITINIB] | > 30 µM (inactive) | > 30 µM (inactive) | > 30 µM (inactive) | > 30 µM (inactive) | > 30 µM (inactive) | > 30 µM (inactive) | –
COCCNCc1ccc(-c2cc3nccc(Oc4ccc(NC(=S)NC(=O)Cc5ccc(F)cc5)cc4F)c3s2)nc1 [GLESATINIB] | > 30 µM (inactive) | – | 2.78 µM (active) | > 30 µM (inactive) | > 30 µM (inactive) | > 30 µM (inactive) | > 30 µM (inactive)
N[C@@H]1CCCN(c2c(/C=C3\SC(=O)NC3=O)cccc2-c2ccccc2)C1 | > 30 µM (inactive) | > 30 µM (inactive) | > 30 µM (inactive) | > 30 µM (inactive) | > 30 µM (inactive) | > 30 µM (inactive) | –
